According to PubChem BioAssay (NCI):
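Where inhibition never reached the appropriate level, the endpoint shown equals the highest concentration tested. Otherwise, values were interpolated linearly from a five-concentration, 48-hour dose response in 96-well plates. Abbreviation: GI50, concentration required for 50% inhibition of growth. TGI marks complete inhibition of growth.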

Tests used:
Experiment in all cases: NCI-60 cell line screen, 48 h
786-0 renal = system: 786-0 renal
A498 renal = system: A498 renal
A549 NSCLC = system: A549 NSCLC
ACHN renal = system: ACHN renal
BT-549 breast = system: BT-549 breast
CCRF-CEM leukemia = system: CCRF-CEM leukemia
COLO 205 colon = system: COLO 205 colon
DU-145 prostate = system: DU-145 prostate
EKVX NSCLC = system: EKVX NSCLC
HCC-2998 colon = system: HCC-2998 colon
HCT-116 colon = system: HCT-116 colon
HCT-15 colon = system: HCT-15 colon
HL-60(TB) leukemia = system: HL-60(TB) leukemia
HOP-62 NSCLC = system: HOP-62 NSCLC
HOP-92 NSCLC = system: HOP-92 NSCLC
HS 578T breast = system: HS 578T breast
HT29 colon = system: HT29 colon
IGROV1 ovarian = system: IGROV1 ovarian
K-562 leukemia = system: K-562 leukemia
KM12 colon = system: KM12 colon
LOX IMVI melanoma = system: LOX IMVI melanoma
M14 melanoma = system: M14 melanoma
MALME-3M melanoma = system: MALME-3M melanoma
MCF7 breast = system: MCF7 breast
MDA-MB-231 breast = system: MDA-MB-231 breast
MDA-MB-435 = system: MDA-MB-435
MOLT-4 leukemia = system: MOLT-4 leukemia
NCI-H226 lung = system: NCI-H226 lung
NCI-H23 lung = system: NCI-H23 lung
NCI-H460 lung = system: NCI-H460 lung
NCI-H522 lung = system: NCI-H522 lung
NCI/ADR-RES ovarian = system: NCI/ADR-RES ovarian
OVCAR-3 ovarian = system: OVCAR-3 ovarian
OVCAR-4 ovarian = system: OVCAR-4 ovarian
OVCAR-5 ovarian = system: OVCAR-5 ovarian
OVCAR-8 ovarian = system: OVCAR-8 ovarian
PC-3 prostate = system: PC-3 prostate
RPMI-8226 leukemia = system: RPMI-8226 leukemia
RXF 393 renal = system: RXF 393 renal
SF-268 CNS = system: SF-268 CNS
SF-295 CNS = system: SF-295 CNS
SF-539 CNS = system: SF-539 CNS
SK-MEL-2 melanoma = system: SK-MEL-2 melanoma
SK-MEL-28 melanoma = system: SK-MEL-28 melanoma
SK-MEL-5 melanoma = system: SK-MEL-5 melanoma
SK-OV-3 ovarian = system: SK-OV-3 ovarian
SN12C renal = system: SN12C renal
SNB-19 CNS = system: SNB-19 CNS
SNB-75 CNS = system: SNB-75 CNS
SR leukemia = system: SR leukemia
SW-620 colon = system: SW-620 colon
T-47D breast = system: T-47D breast
TK-10 renal = system: TK-10 renal
U251 CNS = system: U251 CNS
UACC-257 melanoma = system: UACC-257 melanoma
UACC-62 melanoma = system: UACC-62 melanoma
UO-31 renal = system: UO-31 renal
CAKI-1 renal = system: CAKI-1 renal

## O=C(Nc1ccc(F)cc1)Nc1ccc(Cl)c([N+](=O)[O-])c1
786-0 renal
  GI50: 3.37 µM
  TGI: 13.2 µM
A498 renal
  GI50: 1.8 µM
  TGI: 5.78 µM
A549 NSCLC
  GI50: 3.09 µM
  TGI: 16.3 µM
ACHN renal
  GI50: 2.96 µM
  TGI: 11 µM
BT-549 breast
  GI50: 2.9 µM
  TGI: 10.8 µM
CCRF-CEM leukemia
  GI50: 3.3 µM
  TGI: > 100 µM
COLO 205 colon
  GI50: 2.48 µM
  TGI: 6.31 µM
DU-145 prostate
  GI50: 4.44 µM
  TGI: 21.2 µM
EKVX NSCLC
  GI50: 2.79 µM
  TGI: 11 µM
HCC-2998 colon
  GI50: 3.71 µM
  TGI: 14.3 µM
HCT-116 colon
  GI50: 3.07 µM
  TGI: 11.8 µM
HCT-15 colon
  GI50: 2.92 µM
  TGI: 12.1 µM
HL-60(TB) leukemia
  GI50: 2.5 µM
  TGI: 8.56 µM
HOP-62 NSCLC
  GI50: 3.78 µM
  TGI: 15.9 µM
HOP-92 NSCLC
  GI50: 2.03 µM
  TGI: 6.12 µM
HS 578T breast
  GI50: 4.02 µM
  TGI: 24.2 µM
HT29 colon
  GI50: 3.2 µM
  TGI: 12.4 µM
IGROV1 ovarian
  GI50: 4.77 µM
  TGI: 18.6 µM
K-562 leukemia
  GI50: 3.2 µM
  TGI: > 100 µM
KM12 colon
  GI50: 3.3 µM
  TGI: 13.8 µM
LOX IMVI melanoma
  GI50: 3.51 µM
  TGI: 12.2 µM
M14 melanoma
  GI50: 3.14 µM
  TGI: 12.3 µM
MALME-3M melanoma
  GI50: 2.37 µM
  TGI: 7.2 µM
MCF7 breast
  GI50: 2.66 µM
  TGI: 11.9 µM
MDA-MB-231 breast
  GI50: 2.54 µM
  TGI: 6.46 µM
MDA-MB-435
  GI50: 3.07 µM
  TGI: 11.6 µM
MOLT-4 leukemia
  GI50: 3.13 µM
  TGI: 92.9 µM
NCI-H226 lung
  GI50: 2.28 µM
  TGI: 9.3 µM
NCI-H23 lung
  GI50: 2.62 µM
  TGI: 10.7 µM
NCI-H460 lung
  GI50: 2.72 µM
  TGI: 11.5 µM
NCI-H522 lung
  GI50: 2.44 µM
  TGI: 10.8 µM
NCI/ADR-RES ovarian
  GI50: 2.6 µM
  TGI: 10.3 µM
OVCAR-3 ovarian
  GI50: 3.81 µM
  TGI: 19.1 µM
OVCAR-4 ovarian
  GI50: 2.78 µM
  TGI: 14 µM
OVCAR-5 ovarian
  GI50: 3.55 µM
  TGI: 14.9 µM
OVCAR-8 ovarian
  GI50: 2.98 µM
  TGI: 15.1 µM
PC-3 prostate
  GI50: 1.6 µM
  TGI: 11.1 µM
RPMI-8226 leukemia
  GI50: 1.89 µM
  TGI: 8.58 µM
RXF 393 renal
  GI50: 1.75 µM
  TGI: 6.71 µM
SF-268 CNS
  GI50: 4.42 µM
  TGI: 17.3 µM
SF-295 CNS
  GI50: 2.27 µM
  TGI: 7.93 µM
SF-539 CNS
  GI50: 3.86 µM
  TGI: 14.3 µM
SK-MEL-2 melanoma
  GI50: 2.32 µM
  TGI: 5.83 µM
SK-MEL-28 melanoma
  GI50: 3.77 µM
  TGI: 14.2 µM
SK-MEL-5 melanoma
  GI50: 1.76 µM
  TGI: 3.22 µM
SK-OV-3 ovarian
  GI50: 2.62 µM
  TGI: 7.52 µM
SN12C renal
  GI50: 2.95 µM
  TGI: 11.7 µM
SNB-19 CNS
  GI50: 3.54 µM
  TGI: 14.3 µM
SNB-75 CNS
  GI50: 5.93 µM
  TGI: > 100 µM
SR leukemia
  GI50: 3.41 µM
  TGI: > 100 µM
SW-620 colon
  GI50: 3.45 µM
  TGI: 13.9 µM
T-47D breast
  GI50: 2.18 µM
  TGI: 9.67 µM
TK-10 renal
  GI50: 4.1 µM
  TGI: 20.1 µM
U251 CNS
  GI50: 3.19 µM
  TGI: 12.5 µM
UACC-257 melanoma
  GI50: 2.73 µM
  TGI: 8.85 µM
UACC-62 melanoma
  GI50: 3.04 µM
  TGI: 13.2 µM
UO-31 renal
  GI50: 2.69 µM
  TGI: 10.6 µM

## CCN1/C(=C\c2cc[n+](CC)c3ccccc23)C=Cc2ccccc21
786-0 renal
  GI50: 0.465 µM
  TGI: 12 µM
A498 renal
  GI50: 0.187 µM
  TGI: 2.78 µM
A549 NSCLC
  GI50: 0.215 µM
  TGI: 18.1 µM
ACHN renal
  GI50: 1.19 µM
  TGI: 5.88 µM
BT-549 breast
  GI50: 0.0811 µM
  TGI: 1.5 µM
CAKI-1 renal
  GI50: 4.71 µM
  TGI: 22.5 µM
CCRF-CEM leukemia
  GI50: 0.0859 µM
  TGI: 13.4 µM
COLO 205 colon
  GI50: 0.102 µM
  TGI: 0.32 µM
DU-145 prostate
  GI50: 0.265 µM
  TGI: 13.4 µM
EKVX NSCLC
  GI50: 0.0764 µM
  TGI: 12.1 µM
HCC-2998 colon
  GI50: 0.141 µM
  TGI: 2.61 µM
HCT-116 colon
  GI50: 0.124 µM
  TGI: 10.3 µM
HCT-15 colon
  GI50: 2.84 µM
  TGI: 13.3 µM
HL-60(TB) leukemia
  GI50: 0.123 µM
  TGI: 0.82 µM
HOP-92 NSCLC
  GI50: 0.161 µM
  TGI: 0.937 µM
HS 578T breast
  GI50: 0.33 µM
  TGI: 15.8 µM
HT29 colon
  GI50: 0.202 µM
  TGI: 10.8 µM
IGROV1 ovarian
  GI50: 0.36 µM
  TGI: 12.8 µM
K-562 leukemia
  GI50: 0.0477 µM
  TGI: 12.8 µM
KM12 colon
  GI50: 0.104 µM
  TGI: 1.42 µM
LOX IMVI melanoma
  GI50: 0.179 µM
  TGI: 1.52 µM
M14 melanoma
  GI50: 0.302 µM
  TGI: 2.47 µM
MALME-3M melanoma
  GI50: 0.138 µM
  TGI: 0.857 µM
MCF7 breast
  GI50: 0.114 µM
  TGI: 1.85 µM
MDA-MB-231 breast
  GI50: 0.273 µM
  TGI: 10.2 µM
MDA-MB-435
  GI50: 0.109 µM
  TGI: 1.16 µM
MOLT-4 leukemia
  GI50: 0.207 µM
  TGI: 4.44 µM
NCI-H226 lung
  GI50: 0.301 µM
  TGI: 13.1 µM
NCI-H23 lung
  GI50: 0.0871 µM
  TGI: 7.56 µM
NCI-H460 lung
  GI50: 0.193 µM
  TGI: 1.09 µM
NCI-H522 lung
  GI50: 0.197 µM
  TGI: 10.3 µM
NCI/ADR-RES ovarian
  GI50: 13.8 µM
  TGI: 46.2 µM
OVCAR-3 ovarian
  GI50: 0.118 µM
  TGI: 1.08 µM
OVCAR-4 ovarian
  GI50: 0.0559 µM
  TGI: 12.2 µM
OVCAR-5 ovarian
  GI50: 0.611 µM
  TGI: 13.8 µM
OVCAR-8 ovarian
  GI50: 0.23 µM
  TGI: 13 µM
PC-3 prostate
  GI50: 0.117 µM
  TGI: 1.85 µM
RPMI-8226 leukemia
  GI50: 0.0503 µM
  TGI: 0.753 µM
RXF 393 renal
  GI50: 0.333 µM
  TGI: 4.27 µM
SF-268 CNS
  GI50: 0.291 µM
  TGI: 13.2 µM
SF-295 CNS
  GI50: 0.223 µM
  TGI: 2.9 µM
SF-539 CNS
  GI50: 0.22 µM
  TGI: 11 µM
SK-MEL-2 melanoma
  GI50: 0.231 µM
  TGI: 10.9 µM
SK-MEL-28 melanoma
  GI50: 0.275 µM
  TGI: 2.33 µM
SK-MEL-5 melanoma
  GI50: 0.0605 µM
  TGI: 0.215 µM
SK-OV-3 ovarian
  GI50: 0.236 µM
  TGI: 11.4 µM
SN12C renal
  GI50: 0.233 µM
  TGI: 11.9 µM
SNB-19 CNS
  GI50: 0.163 µM
  TGI: 11.7 µM
SNB-75 CNS
  GI50: 0.169 µM
  TGI: 0.871 µM
SR leukemia
  GI50: 0.152 µM
  TGI: 4.86 µM
SW-620 colon
  GI50: 0.23 µM
  TGI: 7.81 µM
T-47D breast
  GI50: 0.0403 µM
  TGI: 1.75 µM
TK-10 renal
  GI50: 0.448 µM
  TGI: 13.7 µM
U251 CNS
  GI50: 0.119 µM
  TGI: 12.7 µM
UACC-257 melanoma
  GI50: 0.135 µM
  TGI: 2.36 µM
UACC-62 melanoma
  GI50: 0.179 µM
  TGI: 1.27 µM
UO-31 renal
  GI50: 1.89 µM
  TGI: 8.1 µM
